According to ChEMBL document CHEMBL1147660, “Discovery of SCH446211 (SCH6): a new ketoamide inhibitor of the HCV NS3 serine protease and HCV subgenomic RNA replication” (J Med Chem, 2006):
Numbered stars: 1 amine (or outer) side, 2 acyl side, 3 side chain; on linkers, the order of the positions; unused ones are H or OH. Square brackets hold non-standard residues; d marks the D form. Peptide text beside a SMILES is read from it. * marks the point of attachment. Pro(3R,4S-CMe2) = CC1(C)[C@@H]2[C@@H](C(=O)O)NC[C@@H]21; Pro(4,4-S(CH2)3S) = O=C(O)[C@@H]1CC2(CN1)SCCCS2; Pro(4,4-SCH2CH2S) = O=C(O)[C@@H]1CC2(CN1)SCCS2; X4 = O=C(C(=O)[*:2])C(CCC(F)(F)F)N[*:1]; Pro(4,4-Me2) = CC1(C)CN[C@H](C(=O)O)C1; Pro(4R-Me) = C[C@H]1CN[C@H](C(=O)O)C1; Isobutyloxycarbonyl = CC(C)COC(=O)*; X1 = O=C(C(=O)[*:2])C(CC1CC1)N[*:1]; X3 = CCCCC(N[*:1])C(=O)C(=O)[*:2]; Hyp = O=C(O)[C@@H]1C[C@@H](O)CN1; X2 = CCCC(N[*:1])C(=O)C(=O)[*:2]; Chg = N[C@H](C(=O)O)C1CCCCC1; Phg = N[C@H](C(=O)O)c1ccccc1; Tle = CC(C)(C)[C@H](N)C(=O)O; Boc = CC(C)(C)OC(=O)*; tBu = CC(C)(C)*

Key:
[1] = molecular target: NS3 (Hepatitis C virus, UniProt A3EZJ3); assay: Binding affinity to HCV NS3 serine protease; design: species or system Hepacivirus hominis
[2] = test system: Hepatitis C virus; assay: Inhibition of HCV replicon; format: functional, Hepacivirus hominis
[3] = AUC in rat at 10 mg/kg, po; format: ADME, organism-based; design: dose 10 mg/kg, route oral; settings: plasma
[4] = Cmax in rat at 10 mg/kg, po; format: ADME, organism-based; design: dose 10 mg/kg, route oral; settings: in vivo
[5] = AUC in rat at 5 mg/kg, iv; format: ADME, organism-based; design: dose 5 mg/kg, route intravenous; settings: plasma
[6] = Half life in rat at 5 mg/kg, iv; format: ADME, organism-based; design: dose 5 mg/kg, route intravenous; settings: in vivo
[7] = Clearance in rat; format: ADME, organism-based; settings: in vivo
[8] = Oral bioavailability in rat at 10 mg/kg, po; format: ADME, organism-based; settings: in vivo
[9] = AUC in rat at 10 mg/kg, sc; format: ADME, organism-based; design: dose 10 mg/kg, route subcutaneous; settings: plasma
[10] = Selectivity for HCV NS3 serine protease over HNE
[11] = Cmax in rat at 10 mg/kg, sc; format: ADME, organism-based; design: dose 10 mg/kg, route subcutaneous; settings: in vivo
[12] = Oral bioavailability in rat at 10 mg/kg, sc; format: ADME, organism-based; settings: in vivo, subcutaneous
[13] = AUC in monkey at 3 mg/kg, po; format: ADME, organism-based, Macaca mulatta; design: dose 3 mg/kg, route oral; settings: rhesus monkey, plasma
[14] = Cmax in monkey at 3 mg/kg, po; format: ADME, organism-based, Macaca mulatta; design: dose 3 mg/kg, route oral; settings: rhesus monkey, in vivo
[15] = AUC in monkey at 1 mg/kg, iv; format: ADME, organism-based, Macaca mulatta; design: dose 1 mg/kg, route intravenous; settings: rhesus monkey, plasma
[16] = Half life in monkey at 1 mg/kg, iv; format: ADME, organism-based, Macaca mulatta; design: dose 1 mg/kg, route intravenous; settings: rhesus monkey, in vivo
[17] = Clearance in monkey; format: ADME, organism-based, Macaca mulatta; settings: rhesus monkey, in vivo
[18] = Oral bioavailability in monkey at 3 mg/kg, po; format: ADME, organism-based, Macaca mulatta; settings: rhesus monkey, in vivo
[19] = AUC in monkey at 1 mg/kg, sc; format: ADME, organism-based, Macaca mulatta; design: dose 1 mg/kg, route subcutaneous; settings: rhesus monkey, plasma
[20] = Cmax in monkey at 1 mg/kg, sc; format: ADME, organism-based, Macaca mulatta; design: dose 1 mg/kg, route subcutaneous; settings: rhesus monkey, in vivo
[21] = Oral bioavailability in monkey at 1 mg/kg, sc; format: ADME, organism-based, Macaca mulatta; settings: rhesus monkey, in vivo, subcutaneous

Chain of NS3 (A3EZJ3 whole entry): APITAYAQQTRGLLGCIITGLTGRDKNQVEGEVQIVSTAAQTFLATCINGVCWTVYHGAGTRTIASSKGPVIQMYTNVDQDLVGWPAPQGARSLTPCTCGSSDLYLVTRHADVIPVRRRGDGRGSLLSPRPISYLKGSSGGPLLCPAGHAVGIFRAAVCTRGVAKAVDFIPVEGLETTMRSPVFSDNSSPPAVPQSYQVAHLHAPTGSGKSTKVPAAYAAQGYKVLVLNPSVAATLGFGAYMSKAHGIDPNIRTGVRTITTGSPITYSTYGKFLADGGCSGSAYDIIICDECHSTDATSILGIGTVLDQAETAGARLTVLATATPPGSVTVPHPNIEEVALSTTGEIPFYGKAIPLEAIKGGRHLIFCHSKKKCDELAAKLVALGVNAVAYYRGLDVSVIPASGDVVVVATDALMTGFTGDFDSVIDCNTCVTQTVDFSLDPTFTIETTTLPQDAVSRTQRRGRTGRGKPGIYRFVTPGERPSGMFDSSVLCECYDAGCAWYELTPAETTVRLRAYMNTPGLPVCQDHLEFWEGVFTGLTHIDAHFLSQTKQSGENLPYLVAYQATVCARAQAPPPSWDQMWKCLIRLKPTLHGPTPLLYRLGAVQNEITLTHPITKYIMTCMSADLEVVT

Ki [1] | IC90 [2] | Selectivity ratio [10] | SMILES | other results
10 nM | 1800 nM | – | CCCC(NC(=O)[C@@H]1[C@H]2CC(C)(C)O[C@H]2CN1C(=O)[C@@H](NC(=O)OCC(C)C)C(C)(C)C)C(=O)C(=O)NCC(=O)N[C@H](C(=O)N(C)C)c1ccccc1 (some centres undefined) | –
15 nM | 900 nM | – | CCCC(NC(=O)[C@@H]1[C@H]2CC(C)(C)C[C@H]2CN1C(=O)[C@@H](NC(=O)OCC(C)C)C(C)(C)C)C(=O)C(=O)NCC(=O)N[C@H](C(=O)N(C)C)c1ccccc1 (some centres undefined) | –
26 nM | – | – | CCCC(NC(=O)[C@@H]1CC2(CCCC2)CN1C(=O)[C@@H](NC(=O)OCC(C)C)C1CCCCC1)C(=O)C(=O)NCC(=O)N[C@H](C(=O)N(C)C)c1ccccc1 (some centres undefined) | –
14 nM | 250 nM | 147 | CCCC(NC(=O)[C@@H]1[C@@H]2[C@H](CN1C(=O)[C@@H](NC(=O)OC(C)(C)C)C(C)(C)C)C2(C)C)C(=O)C(=O)NCC(=O)N[C@H](C(=O)N(C)C)c1ccccc1 (stereo partly drawn) (Boc-[Tle][Pro(3R,4S-CMe2)][X2]G[Phg]-NMe2) | –
10000 nM | – | – | CCCC(NC(=O)[C@@H]1CCCN1C(=O)[C@@H](NC(=O)OCC(C)C)C1CCCCC1)C(=O)C(=O)NCC(=O)N[C@H](C(=O)N(C)C)c1ccccc1 (some centres undefined) (Isobutyloxycarbonyl-[Chg]P[X2]G[Phg]-NMe2) | –
10 nM | 200 nM | 4 | CCCC(NC(=O)[C@@H]1[C@@H]2[C@H](CN1C(=O)[C@@H](NC(=O)OCC(C)C)C1CCCCC1)C2(C)C)C(=O)C(=O)NCC(=O)N[C@H](C(=O)N(C)C)c1ccccc1 (stereo partly drawn) (Isobutyloxycarbonyl-[Chg][Pro(3R,4S-CMe2)][X2]G[Phg]-NMe2) | –
28 nM | – | – | CCCC(NC(=O)[C@@H]1CC2(CN1C(=O)[C@@H](NC(=O)OCC(C)C)C1CCCCC1)SCCCS2)C(=O)C(=O)NCC(=O)N[C@H](C(=O)N(C)C)c1ccccc1 (some centres undefined) (Isobutyloxycarbonyl-[Chg][Pro(4,4-S(CH2)3S)][X2]G[Phg]-NMe2) | –
26 nM | – | – | CCCC(NC(=O)[C@@H]1CC2(CN1C(=O)[C@@H](NC(=O)OCC(C)C)C1CCCCC1)SCCS2)C(=O)C(=O)NCC(=O)N[C@H](C(=O)N(C)C)c1ccccc1 (some centres undefined) (Isobutyloxycarbonyl-[Chg][Pro(4,4-SCH2CH2S)][X2]G[Phg]-NMe2) | –
16 nM | 350 nM | 81 | CCCC(NC(=O)[C@@H]1[C@@H]2[C@H](CN1C(=O)[C@@H](NC(=O)OCC(C)C)C(C)(C)C)C2(C)C)C(=O)C(=O)NCC(=O)N[C@H](C(=O)N(C)C)c1ccccc1 (stereo partly drawn) (Isobutyloxycarbonyl-[Tle][Pro(3R,4S-CMe2)][X2]G[Phg]-NMe2) | –

Second part, the compound before the results:

SMILES | Ki [1] | IC90 [2] | Selectivity ratio [10] | other results
CCCC(NC(=O)[C@@H]1C[C@@H](SC(C)(C)C)CN1C(=O)[C@@H](NC(=O)OCC(C)C)C(C)(C)C)C(=O)C(=O)NCC(=O)N[C@H](C(=O)N(C)C)c1ccccc1 (some centres undefined) | 120 nM | – | – | –
CN(C)C(=O)[C@@H](NC(=O)CNC(=O)C(=O)C(CC1CC1)NC(=O)[C@@H]1[C@@H]2[C@H](CN1C(=O)[C@@H](NC(=O)OC(C)(C)C)C(C)(C)C)C2(C)C)c1ccccc1 (stereo partly drawn) (Boc-[Tle][Pro(3R,4S-CMe2)][X1]G[Phg]-NMe2) | 3.8 nM | 100 nM | 1000 | AUC [3]: 0.35 µM·h; Cmax [4]: 120 nM; AUC [5]: 4.7 µM·h; half-life [6]: 5.2 h; clearance [7]: 24 mL/min/kg; bioavailability [8]: 4%; AUC [9]: 19.5 µM·h; Cmax [11]: 4370 nM; bioavailability [12]: 100%; AUC [13]: 0.03 µM·h; Cmax [14]: 30 nM; AUC [15]: 3.4 µM·h; half-life [16]: 5.3 h; clearance [17]: 6.9 mL/min/kg; bioavailability [18]: 1%; AUC [19]: 5.6 µM·h; Cmax [20]: 1600 nM; bioavailability [21]: 100%
CCCCC(NC(=O)[C@@H]1[C@@H]2[C@H](CN1C(=O)[C@@H](NC(=O)OC(C)(C)C)C(C)(C)C)C2(C)C)C(=O)C(=O)NCC(=O)N[C@H](C(=O)N(C)C)c1ccccc1 (stereo partly drawn) (Boc-[Tle][Pro(3R,4S-CMe2)][X3]G[Phg]-NMe2) | 10 nM | 400 nM | 964 | –
CN(C)C(=O)[C@@H](NC(=O)CNC(=O)C(=O)C(CCC(F)(F)F)NC(=O)[C@@H]1[C@@H]2[C@H](CN1C(=O)[C@@H](NC(=O)OC(C)(C)C)C(C)(C)C)C2(C)C)c1ccccc1 (stereo partly drawn) (Boc-[Tle][Pro(3R,4S-CMe2)][X4]G[Phg]-NMe2) | 2 nM | 400 nM | 4600 | –
CCCC(NC(=O)[C@@H]1C[C@@H](OC(C)(C)C)CN1C(=O)[C@@H](NC(=O)OCC(C)C)C(C)(C)C)C(=O)C(=O)NCC(=O)N[C@H](C(=O)N(C)C)c1ccccc1 (some centres undefined) (Isobutyloxycarbonyl-[Tle][Hyp](tBu)[X2]G[Phg]-NMe2) | 19 nM | 2000 nM | – | –
CCCC(NC(=O)[C@@H]1CC(C)(C)CN1C(=O)[C@@H](NC(=O)OCC(C)C)C(C)(C)C)C(=O)C(=O)NCC(=O)N[C@H](C(=O)N(C)C)c1ccccc1 (some centres undefined) (Isobutyloxycarbonyl-[Tle][Pro(4,4-Me2)][X2]G[Phg]-NMe2) | 36 nM | – | – | –
CCCC(NC(=O)[C@@H]1C[C@@H](C)CN1C(=O)[C@@H](NC(=O)OCC(C)C)C(C)(C)C)C(=O)C(=O)NCC(=O)N[C@H](C(=O)N(C)C)c1ccccc1 (stereo partly drawn) (Isobutyloxycarbonyl-[Tle][Pro(4R-Me)][X2]G[Phg]-NMe2) | 140 nM | – | – | –
